Where two headings read alike, the source gives them in different places.
What was measured:
[1] = RP TLC on non-impregnated control plates; assay type: physicochemical; conditions: Table S4, non-impregnated RP plate; acetonitrile/acetate buffer pH 7.4/methanol 60:20:20
Description: (§1) For TLC chromatography, glass plates 20 × 20 cm from Merck, covered with silica gel with the addition of a fluorescent indicator, were used. Normal phase (NP) plates were used with standard Merck TLC Silica gel 60 F254 plates, while in reverse phase (RP) silanized plates RP-2: Merck TLC Silica gel 60 RP-2 F254 were used.
Normal and reversed phase thin layer chromatography (NP TLC and RP TLC respectively) was performed using silica-gel-coated glass plates. Half of them were covered with 2 mg/mL bovine serum albumin solution and half remained pure.
(§2) The mobility of the compounds was also determined on the plates with no protein as a modifier. […] The acetate buffer (20 mM) was prepared by dissolving 1.54 g of ammonium acetate in 1 L of distilled water. The pH was then adjusted with a concentrated ammonia solution using a pH meter. The plates were developed in standard, vertical chromatographic chambers, each time using 100 mL of the mobile phase, after the chamber was previously saturated with solvent vapors for approximately 1 h.
(§3) The unfolded-protein-impregnated plates and the control plates were scanned with a Desaga CD 60 densitometer. The values of the delay factor (Rf) were collected, i.e., the ratio of the distance traveled by the substance to be analyzed to the distance traveled through the front of the mobile phase. […] The experiment was repeated (for both BSA-coated and control plates) and the Rf values pooled are the mean of both series of experiments.

[2] = NP TLC on non-impregnated control plates; assay type: physicochemical; conditions: Table S3, non-impregnated NP plate; acetonitrile/acetate buffer pH 7.4/methanol 60:20:20
[3] = Table S1, coded 1/0; ref DrugBank [7]; cited from earlier work
[4] = target: T1, human serum albumin (HSA) (Homo sapiens, UniProt P02768)
T1 sequence (P02768 25-609): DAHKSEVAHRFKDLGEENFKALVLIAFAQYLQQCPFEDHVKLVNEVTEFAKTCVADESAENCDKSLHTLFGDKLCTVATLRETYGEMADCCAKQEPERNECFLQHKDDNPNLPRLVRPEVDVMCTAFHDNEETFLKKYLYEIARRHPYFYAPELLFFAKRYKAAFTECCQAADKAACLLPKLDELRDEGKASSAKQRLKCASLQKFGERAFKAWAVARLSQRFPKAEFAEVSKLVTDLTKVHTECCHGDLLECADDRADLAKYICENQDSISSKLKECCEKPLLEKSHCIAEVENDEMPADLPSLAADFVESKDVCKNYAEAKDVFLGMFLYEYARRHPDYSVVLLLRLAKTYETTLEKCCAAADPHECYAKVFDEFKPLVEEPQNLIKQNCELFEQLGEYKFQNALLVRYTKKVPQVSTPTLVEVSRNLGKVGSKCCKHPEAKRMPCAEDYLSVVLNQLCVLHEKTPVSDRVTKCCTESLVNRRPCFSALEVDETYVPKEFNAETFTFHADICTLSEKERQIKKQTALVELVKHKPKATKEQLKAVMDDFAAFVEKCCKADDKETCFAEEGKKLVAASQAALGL
Description: (§4) High performance liquid chromatography was performed using immobilized human serum albumin column (HPLCHSA) and immobilized artificial membrane (HPLCIAM). HPLC was the source of the log k values (logarithm of retention factor), log kHSA and log kIAM.
(§5) High performance liquid chromatography was performed using a chromatography column with immobilized human serum albumin. The assay was performed on a Perkin Elmer Series 200 instrument connected to a UV-VIS spectrometer as detector. The analytical wavelength was the same for all compounds at 210 nm. […] The acetate buffer was prepared by dissolving 0.77 g of ammonium acetate in 1 L of distilled water. The pH was then adjusted with a concentrated ammonia solution using a pH meter.
(§6) The phase flow through the system was set to 0.9 mL/min as recommended by the column manufacturer. The solutions were delivered to the column using an autosampler syringe, the injection size was 10 µL. Since the column could not be thermostated, the room was kept at a constant temperature of 25 degrees Celsius.
(§7) Chromatographic data (retention coefficient, k, and derivative, log k) were obtained with TotalChrom software connected to an HPLC instrument. […] The experiment was then repeated and the collected retention rates were the mean values of both series.

[5] = target: T1, human serum albumin (HSA); experiment: in vitro; conditions: immobilized hsa column, pH 7.4
Description: as §4, §5, §6, §7

[6] = Milk-to-plasma (M/P) drug concentration ratio obtained in vivo, from literature; parameters: species or system human; conditions: Table S1, scale of drug penetration into milk 1-4
plasma protein = conditions: Table S1, plasma protein binding given as fraction; ref DrugBank [7]; cited from earlier work
[7] = target: T2, bovine serum albumin (BSA) (Bos taurus, UniProt P02769); experiment: NP TLC on plates impregnated with bovine serum albumin; assay type: binding; conditions: Table S3, NP plate impregnated with 2 mg/mL BSA; pH 7.4 mobile phase
T2 construct: purchased Sigma Aldrich
T2 sequence (P02769 25-607): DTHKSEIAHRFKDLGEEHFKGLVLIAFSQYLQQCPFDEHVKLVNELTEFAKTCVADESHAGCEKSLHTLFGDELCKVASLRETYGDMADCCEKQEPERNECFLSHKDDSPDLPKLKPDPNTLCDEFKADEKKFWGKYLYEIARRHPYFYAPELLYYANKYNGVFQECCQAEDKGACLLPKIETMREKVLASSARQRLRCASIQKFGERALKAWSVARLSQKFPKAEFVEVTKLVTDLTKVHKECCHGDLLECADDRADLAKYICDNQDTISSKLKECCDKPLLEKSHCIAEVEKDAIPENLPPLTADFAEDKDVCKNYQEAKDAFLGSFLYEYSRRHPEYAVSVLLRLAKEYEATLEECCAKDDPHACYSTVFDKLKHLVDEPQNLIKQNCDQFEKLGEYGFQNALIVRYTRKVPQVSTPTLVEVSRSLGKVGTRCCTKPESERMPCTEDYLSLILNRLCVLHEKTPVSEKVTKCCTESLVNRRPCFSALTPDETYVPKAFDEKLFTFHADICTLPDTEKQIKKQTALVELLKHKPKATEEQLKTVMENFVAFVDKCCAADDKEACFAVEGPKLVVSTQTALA
Excerpt: (§8) Chromatographic descriptors were obtained in experiments, thin layer chromatography in normal (NP TLC) and reversed mode (RP TLC). The stationary phase was modified with bovine serum albumin (BSA). TLC was the source of retention factor (Rf) values, denoted in statistical models as NP and RP.
as §1
(§9) The stationary phase of the plates, both NP and RP, was modified with an aqueous solution of bovine serum albumin purchased from Sigma Aldrich (bovine serum albumin, lyophilized powder).
(§10) The impregnation of the plates was carried out with a 2 mg/mL solution applied to the surface using a Desaga SG 1 hand sprayer; the plates were then air dried. […] Normal and reversed phase thin layer chromatography (NP TLC and RP TLC respectively) was performed using silica-gel-coated glass plates. Half of them were covered with 2 mg/mL bovine serum albumin solution and half remained pure.
as §2, §3

[8] = Table S1; source not stated; cited from earlier work
[9] = HPLC on immobilized artificial membrane column (HPLCIAM); assay type: physicochemical; conditions: for log k IAM: Table S5, IAM column, pH 7.4; for k IAM: Table S5, retention factor, IAM column, phosphate buffer pH 7.4/acetonitrile 80:20
[10] = Table S1, milk/plasma drug concentration ratio, in vivo; cited from earlier work
[11] = target: T2, bovine serum albumin (BSA); experiment: RP TLC on plates impregnated with bovine serum albumin; assay type: binding; conditions: Table S4, RP plate impregnated with 2 mg/mL BSA; pH 7.4 mobile phase
Excerpt: as §8, §1, §9, §10, §2, §3

[12] = Table S5, retention factor, HSA column, pH 7.4, 25 degrees Celsius

Structure (SMILES)	CRP (Rf, control RP plate) [1]	CNP (Rf, control NP plate) [2]	CNS+/- [3]	k HSA [4, 12]	chromatographic logD [5]	M/P code [6]	PB (plasma protein)	NP (Rf, BSA-impregnated NP plate) [7]	BB vivo [8]	log k IAM [9]	k IAM [9]	M/P [10]	RP (Rf, BSA-impregnated RP plate) [11]	k HSA ([4]; pH 7.4)
Clc1cccc(Cl)c1N=C1NCCN1 [clonidine]	0.73	0.49	1	1.35	0.13	4 (4 is M/P >1.20—dangerous)	0.3	0.50	0.150	0.45	2.83	2	0.68	
O=C1NC(=O)C(c2ccccc2)(c2ccccc2)N1 [phenytoin]	0.87	0.97	1	1.63	0.21	1 (Code 1 corresponds to drugs with an M/P value <0.40—completely safe)	0.9	0.97	-0.096	0.25	1.78	0.29	0.86	
Cc1ncc2n1-c1ccc(Cl)cc1C(c1ccccc1F)=NC2 [midazolam]	0.66	0.82	1		0.51	2 (2 corresponds to the range of 0.40–0.80—at the safety limit)	0.97	0.83	0.398	0.76	5.69	0.785	0.66	3.22
CN1CCN2c3ccccc3Cc3ccccc3C2C1 (stereo not drawn) [mianserin]	0.55	0.54	1	6.39	0.81	4 (4 is M/P >1.20—dangerous)	0.9	0.55	0.990	1.34	21.72	2.2	0.55	
CN1C(=O)CC(=O)N(c2ccccc2)c2cc(Cl)ccc21 [clobazam]	0.79	0.95	1		0	1 (Code 1 corresponds to drugs with an M/P value <0.40—completely safe)	0.85	0.95	0.350	0.41	2.58	0.25	0.80	1.01
CN1CCN2c3ncccc3Cc3ccccc3C2C1 (stereo not drawn) [mirtazapine]	0.58	0.39	1	2.96	0.47	3 (3 range 0.81–1.20—possibly over the safety limit)		0.39	0.530	0.77	5.83	1.1	0.58	
CN/C(=N/CCSCc1nc[nH]c1C)NC#N [cimetidine]	0.88	0.64	0	0.67	-0.17	4 (4 is M/P >1.20—dangerous)	0.17	0.67	-1.420	-0.58	0.26	1.7	0.87	

— article PMC9182007, “Statistical Methods in the Study of Protein Binding and Its Relationship to Drug Bioavailability in Breast Milk” (Molecules, 2022)
